Results: patent US20230257385A1, “SALT AND SOLID FORMS OF TABERNANTHALOG” (priority 2021, published 2023)
Counter-ions that a name gives are not always drawn.

Columns and labels:
[1] = Dynamic vapour sorption (DVS) of selected salts (Example 8); type: physicochemical
Summary of the method: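 Sorption/desorption isotherms on 20–50 mg sample at 25°C after 60 min at 0% RH: 5% steps to 30%, 10% steps to 90%, then reverse. Equilibrium criterion dm/dt 0.002%/min; kinetic and isotherm curves derived.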

[2] = Stability of sorbate salt at 95% RH (KNO3) at 20° C. (Example 10, Experiment 10); type: physicochemical; conditions: XRPD
Procedure: The samples were maintained under equilibrium humidity of 95% RH at 20° C. and monitored at 5 day by XRPD and 10 day time points by ^1H NMR, XRPD, DSC, TGA and PLM.
Experiment 10-Sample A was open-capped, and Experiment 10-Sample B was open-capped inside double, cable-tied, electrostatic polythene bags (to mimic a typical packaging configuration) and both were placed inside the same humidity chamber at 95% RH at 20° C. The powders were finely divided and distributed evenly over the base of the vial, such that equal material coverage across the panel was observed. The samples were sub-sampled at intervals of t=0, 5 d and 10 d and analysed by XRPD, DSC, TGA and ^1H NMR, for evidence of phase change or chemical degradation

[3] = listed as Tabernanthalog sorbate salt (Form A)

In the case of `COc1ccc2c3c([nH]c2c1)CCN(C)CC3` [tabernanthalog sorbate salt], the DVS sorption/desorption isotherm ([1]; 0 to 90 to 0% RH, 25° C., dm/dt 0.002%/min) is reported as “slightly hygroscopic up to 80% RH”, the “DVS 0 to 90 to 0% RH (dm/dt <0.002%), mass change” value (“DVS 0 to 90 to 0% RH … mass change” below) ([1]; desorption, 0.0% RH) is reported as −0.06% and the DVS mass change ([1]; desorption, 0.0% RH, listed as tabernanthalog sorbate salt (Form A)) is reported as 0.06%. The DVS mass change ([1]; desorption, 0.0% RH, listed as tabernanthalog sorbate salt (Form I)) was −0.06%, the “DVS 0 to 90 to 0% RH … mass change” value ([1]; desorption, 5.0% RH) was −0.05% and the DVS mass change ([1]; desorption, 5.0% RH, listed as tabernanthalog sorbate salt (Form A)) was 0.05%. The DVS mass change ([1]; desorption, 5.0% RH, listed as tabernanthalog sorbate salt (Form I)) was −0.05%, the “DVS 0 to 90 to 0% RH … mass change” value ([1]; desorption, 10.0% RH) was −0.04% and the DVS mass change ([1]; desorption, 10.0% RH, listed as tabernanthalog sorbate salt (Form A)) was 0.04%. For the same compound, the DVS mass change ([1]; desorption, 10.0% RH, listed as tabernanthalog sorbate salt (Form I)) was −0.04%, the “DVS 0 to 90 to 0% RH … mass change” value ([1]; desorption, 15.0% RH) was −0.03% and the DVS mass change ([1]; desorption, 15.0% RH, listed as tabernanthalog sorbate salt (Form A)) was 0.03%. For the same compound, the DVS mass change ([1]; desorption, 15.0% RH, listed as tabernanthalog sorbate salt (Form I)) was −0.03%, the “DVS 0 to 90 to 0% RH … mass change” value ([1]; desorption, 20.0% RH) was −0.02% and the DVS mass change ([1]; desorption, 20.0% RH, listed as tabernanthalog sorbate salt (Form A)) was 0.02%. For the same compound, the DVS mass change ([1]; desorption, 20.0% RH, listed as tabernanthalog sorbate salt (Form I)) was −0.02%, the “DVS 0 to 90 to 0% RH … mass change” value ([1]; desorption, 25.0% RH) was −0.007% and the DVS mass change ([1]; desorption, 25.0% RH, listed as tabernanthalog sorbate salt (Form A)) was 0.00%. For the same compound, the DVS mass change ([1]; desorption, 25.0% RH, listed as tabernanthalog sorbate salt (Form I)) was −0.007%, the “DVS 0 to 90 to 0% RH … mass change” value ([1]; desorption, 30.0% RH) was 0.00% and the DVS mass change ([1]; desorption, 30.0% RH) was 0.00%. The “DVS 0 to 90 to 0% RH … mass change” value ([1]; desorption, 40.0% RH) was 0.03%, the DVS mass change ([1]; desorption, 40.0% RH) was 0.03% and the “DVS 0 to 90 to 0% RH … mass change” value ([1]; desorption, 50.0% RH) was 0.06%. For the same compound, the DVS mass change ([1]; desorption, 50.0% RH) was 0.06%, the “DVS 0 to 90 to 0% RH … mass change” value ([1]; desorption, 60.0% RH) was 0.18% and the DVS mass change ([1]; desorption, 60.0% RH) was 0.18%. For the same compound, the “DVS 0 to 90 to 0% RH … mass change” value ([1]; desorption, 70.0% RH) was 0.30%, the DVS mass change ([1]; desorption, 70.0% RH) was 0.30% and the “DVS 0 to 90 to 0% RH … mass change” value ([1]; desorption, 80.0% RH) was 0.48%. The DVS mass change ([1]; desorption, 80.0% RH) was 0.48%, the “DVS 0 to 90 to 0% RH … mass change” value ([1]; desorption, 90.0% RH) was 0.98% and the DVS mass change ([1]; desorption, 90.0% RH) was 0.98%. The “DVS 0 to 90 to 0% RH … mass change” value ([1]; sorption, 0.0% RH) was 0.00%, the DVS mass change ([1]; sorption, 0.0% RH, dm/dt<0.002%) was 0.00% and the “DVS 0 to 90 to 0% RH … mass change” value ([1]; sorption, 5.0% RH) was 0.0%. For the same compound, the DVS mass change ([1]; sorption, 5.0% RH) was 0.0%, the “DVS 0 to 90 to 0% RH … mass change” value ([1]; sorption, 10.0% RH) was 0.01% and the DVS mass change ([1]; sorption, 10.0% RH) was 0.01%. For the same compound, the “DVS 0 to 90 to 0% RH … mass change” value ([1]; sorption, 15.0% RH) was 0.01%, the DVS mass change ([1]; sorption, 15.0% RH) was 0.01% and the “DVS 0 to 90 to 0% RH … mass change” value ([1]; sorption, 20.0% RH) was 0.02%. The DVS mass change ([1]; sorption, 20.0% RH) was 0.02%, the “DVS 0 to 90 to 0% RH … mass change” value ([1]; sorption, 25.0% RH) was 0.03% and the DVS mass change ([1]; sorption, 25.0% RH) was 0.03%. The “DVS 0 to 90 to 0% RH … mass change” value ([1]; sorption, 30.0% RH) was 0.03%, the DVS mass change ([1]; sorption, 30.0% RH) was 0.03% and the “DVS 0 to 90 to 0% RH … mass change” value ([1]; sorption, 40.0% RH) was 0.05%. The DVS mass change ([1]; sorption, 40.0% RH) was 0.05%, the “DVS 0 to 90 to 0% RH … mass change” value ([1]; sorption, 50.0% RH) was 0.07% and the DVS mass change ([1]; sorption, 50.0% RH) was 0.07%. The “DVS 0 to 90 to 0% RH … mass change” value ([1]; sorption, 60.0% RH) was 0.10%, the DVS mass change ([1]; sorption, 60.0% RH) was 0.10% and the “DVS 0 to 90 to 0% RH … mass change” value ([1]; sorption, 70.0% RH) was 0.14%. The DVS mass change ([1]; sorption, 70.0% RH) was 0.14%, the “DVS 0 to 90 to 0% RH … mass change” value ([1]; sorption, 80.0% RH) was 0.21% and the DVS mass change ([1]; sorption, 80.0% RH) was 0.21%. The “DVS 0 to 90 to 0% RH … mass change” value ([1]; sorption, 90.0% RH) was 0.98%, the DVS mass change ([1]; sorption, 90.0% RH) was 0.98% and the “form change on storage, double-bagged (closed) vial” value [2] was “At t=10 d, Form A converted to Pattern #2”. The “form change on storage, open vial” value [2] was “At t=5 d, Form A converted to Pattern #2”, the “form change on storage, double-bagged (closed) vial” value [2, 3] was “after 10 days” and the “form change on storage, open vial” value [2, 3] was “converted to Form C (Pattern #2) after 5 days”.
